Measured values from publication PMC11546692 (International Journal of Molecular Sciences, 2024).

Legend:
[1] = tested on: normal pancreatic epithelial cell line (HPDE); assay type: cell-based
[2] = tested on: MiaPaCa-2 cells; assay: Cell death by propidium iodide flow cytometry; assay type: cell-based, human; details: MiaPaCa-2, 0.05 μM, 48 h
Method: (§1) ATO inhibited PC cell growth by stimulation of apoptosis. The effects of PhAs-LHP on cell cycle and cell death were determined by flow cytometry analysis. In MiaPaCa-2 cells, after 48 h treatment, ATO induced about 15% cell death at 0.5 μM while PhAs-LHP (0.05 μM) caused 24% cell death at ten times lower concentrations than ATO (Figure 4A). Likewise, after 24 h treatment, ATO (2 μM) and PhAs-LHP (0.2 μM) induced cell cycle arrest at the G2/M phase in PANC-1 cells (Figure 4B).
Figure 4 PhAs-LHP induced cell death and cell cycle arrest more potently than ATO. MiaPaCa-2 cells were treated with ATO (0.5 μM) or PhAs-LHP (0.05 μM) for 48 h (A). PANC-1 cells were treated with ATO (2 μM) or PhAs-LHP (0.2 μM) for 24 h (B). Both MiaPaCa-2 and PANC-1 cells were then stained with propidium iodide (PI) and subjected to flow cytometry analysis. Numbers indicate the percent of PI-negative cells of a total of 10,000 cells analyzed per condition (A). […]
Cell death and cell cycle were assayed using propidium iodide (PI) and flow cytometry. […] Samples were processed with the FACSymphony A3 flow cytometer (BD Biosciences), and the acquired data were analyzed with the FlowJo software (BD Biosciences, San Jose, CA, USA).

[3] = tested on: PANC-1 cells; assay: Cell cycle by propidium iodide flow cytometry; assay type: cell-based, human; details: PANC-1, 0.2 μM, 24 h
Method: as §1
Figure 4 PhAs-LHP induced cell death and cell cycle arrest more potently than ATO. MiaPaCa-2 cells were treated with ATO (0.5 μM) or PhAs-LHP (0.05 μM) for 48 h (A). PANC-1 cells were treated with ATO (2 μM) or PhAs-LHP (0.2 μM) for 24 h (B). Both MiaPaCa-2 and PANC-1 cells were then stained with propidium iodide (PI) and subjected to flow cytometry analysis. Numbers indicate the percent of PI-negative cells of a total of 10,000 cells analyzed per condition (A). TEXT PRINTED IN THE PICTURE: (A) ATO: % PI Negative 85.4 (0.5 μM) | (A) PhAs-LHP: % PI Negative 75.9 (0.05 μM) | (B) ATO: %G1 28.9 (2 μM); %S 16.7 (2 μM); %G2 48.9 (2 μM) | (B) PhAs-LHP: %G1 39.3 (0.2 μM); %S 19.8 (0.2 μM); %G2 38.6 (0.2 μM)
Cell death and cell cycle were assayed using propidium iodide (PI) and flow cytometry. Cells were treated with ATO or PhAs-LHP with the concentrations indicated in the text for 48 h for measuring cell death or 24 h for determining cell cycle arrest. All floating and adhering cells were then trypsinized and washed two times with cold phosphate-buffered saline (PBS). For cell death assays, cells were harvested and resuspended in PBS containing 1 μg/mL PI. For cell cycle analysis, cells were harvested and resuspended in PBS containing 0.1% Triton X-100, 50 μg/mL PI, and 10 μg/mL RNaseA (Thermo Scientific, Melbourne, Australia) and then incubated at 37 °C for 15 min. Samples were processed with the FACSymphony A3 flow cytometer (BD Biosciences), and the acquired data were analyzed with the FlowJo software (BD Biosciences, San Jose, CA, USA).

[4] = tested on: MiaPaCa-2 human pancreatic cancer cells xenograft; assay: Subcutaneous MiaPaCa-2 xenograft tumor growth in Scid mice; assay type: in vivo
[5] = tested on: Skp2; assay: Skp2 immunohistochemical staining of xenografted tumors; assay type: in vivo, Scid mice
[6] = tested on: MiaPaCa-2 cells; details: MiaPaCa-2, 48 h, MTT
[7] = tested on: PANC-1 cells; details: PANC-1, 48 h, MTT
[8] = tested on: TB33117 cells; details: TB33117, 48 h, MTT
[9] = in vivo
[10] = mouse, in vivo
[11] = tested on: pancreatic cancer (PC) cells; assay: MTT proliferation of human and murine pancreatic cancer cells (overall statements, combinations); assay type: cell-based; details: MiaPaCa-2, PANC-1, TB33117, KPCWT942
[12] = read-out: IC50 inhibition of PC cell proliferation

CC(=O)N[C@H]1CS[As](c2ccccc2)SC[C@@H](C(N)=O)NC(=O)[C@H](CCCNC(=N)N)NC(=O)[C@H](CCCNC(=N)N)NC(=O)[C@H](CC(C)C)NC(=O)[C@H](CCCNC(=N)N)NC(=O)[C@H](Cc2c[nH]cn2)NC(=O)[C@H](Cc2ccc(O)cc2)NC(=O)[C@H](C)NC1=O (some centres unmarked) [PhAs-LHP]
reduction of proliferation of HPDE [1]: 10%
cell death [2]: 24%
% PI Negative ([2]; of 10,000 cells): 75.9%
%G1 [3]: 39.3%
%G2 [3]: 38.6%
%S [3]: 19.8%
further reduction in tumor volumes and weight on top of Gem ([4]; mouse, in vivo): further decreased tumor volumes
relative tumor growth (Day 7 volume = 100%) ([4]; mouse, in vivo): significantly slower than of Gem plus PAO
pancreatic tumor growth (tumor volume, tumor weight) ([4]; mouse, in vivo, ip): significantly suppressed pancreatic tumor growth
levels of Skp2 in tumors, combination with gemcitabine ([5]; mouse, in vivo): did not further reduce the expression of Skp2
levels of Skp2 in tumors ([5]; mouse, in vivo, ip): reduced
IC50 [6, 12]: 120 ± 100 nM
IC50 [7, 12]: 210 ± 30 nM
IC50 [8, 12]: 200 ± 50 nM
toxicity (mouse body weight) [9]: No toxicity was observed
arsenic (As) in brain, heart, liver and kidney [10]: not detected

Cc1nc(Nc2[nH]nc3c2CN(C(=O)N[C@H](CN(C)C)c2ccccc2)C3(C)C)c2sccc2n1 [PF-3758309]
effect of pre-treatment on inhibition of PC cell growth by ATO ([11]; 24 h pre-incubation with PF-3758309, then 48 h ATO): enhanced the inhibitory effects of ATO

Nc1ccn([C@@H]2O[C@H](CO)[C@@H](O)C2(F)F)c(=O)n1 [Gem, gemcitabine, reference compound]
PC growth (tumor volume, tumor weight) ([4]; 50 mg/kg i.p. every 4 days, alone, vs control): significantly decreased PC growth
levels of Skp2 in tumors ([5]; 50 mg/kg i.p., vs non-treatment control, IHC): reduced
effect of pre-treatment on inhibition of PC cell growth by ATO ([11]; 24 h pre-incubation with Gem, then 48 h ATO): enhanced the inhibitory effects of ATO

CAYHRLRRC [LHP, reference compound]
effect on cell proliferation [6]: did not affect the proliferation
effect on cell proliferation [7]: did not affect the proliferation
effect on cell proliferation [8]: did not affect the proliferation
